Among the data in patent US10882869B2, “Condensed heterocyclic compounds and pesticides” (NISSAN CHEMICAL CORPORATION, priority 2015, dated 2021) are mortality and pest or weed control values, retold here.

Type in all cases: in vivo
One test relates to Ctenocephalides felis. Description: Test on the effect on Ctenocephalides felis (thin film in glass container). As to conditions: 96 h, application dose 10 μg/cm^2, adults, 4 days after release, 25° C.
Another test deals with Myzus persicae. Description: Insecticidal test on Myzus persicae (cabbage leaf spray). To be noted: 144 h, 500 ppm solution sprayed (2.5 mg/cm^2), apterous adults on cabbage leaves, 6 days after, 25° C.
A further test concerns Spodoptera litura. Description: Insecticidal test on Spodoptera litura (cabbage leaves soaked). As to conditions: 144 h, 500 ppm solution, 3rd-instar larvae, 6 days after, 25° C.
For test [1], the system named is Frankliniella occidentalis. The experiment in a line: Insecticidal activity on Frankliniella occidentalis (kidney bean leaf spray). To be noted: 48 h, 500 ppm solution sprayed (2.5 mg/cm^2), larvae on kidney bean leaves, 2 days after. The method, then:
In styrol cups having an inner diameter of 7 cm, wet filter paper was laid, kidney bean leaves cut into a 3 cm square were laid on the paper, and each leaf was inoculated with 20 larvae of Frankliniella occidentalis. […] 2.5 ml of the solutions were sprayed from a rotary spray tower into the styrol cups (2.5 mg/cm^2).
2 Days after, dead insects were counted, and insect damage on kidney bean leaves was examined. The mortality was calculated by using the same equation as in Test Example 1.
The insect damage degree was evaluated as follows. 1: 0 to 20% insect damage, 2: 20 to 50% insect damage, 3: 50 to 70% insect damage, and 4: 70% or higher insect damge. The test was carried out in duplicate.

Test [2] deals with Plutella xylostella. The experiment in a line: Insecticidal test on Plutella xylostella (cabbage leaves soaked). As to conditions: 144 h, 500 ppm solution, 3rd-instar larvae, 6 days after, 25° C.
A further test relates to Bemisia argentifolii. The experiment in a line: Insecticidal test on Bemisia argentifolii (kidney bean leaf spray). To be noted: 120 h, 500 ppm solution sprayed (2.5 mg/cm^2), adults on kidney bean leaves, 5 days after, 25° C. On the procedure: In styrol cups having an inner diameter of 7 cm, wet filter paper was laid, and kidney bean leaves cut to 3 cm were laid on the paper. […] The leaves were dried in air, and adults of Bemisia argentifolii were released in the cups, and the cups were covered with lids and placed in an incubator at 25° C. 5 Days after, dead insects were counted, and the mortality was calculated by using the same equation as in Test Example 1. The test was carried out in duplicate.

The test system of a further test is Rhipicephalus sanguineus. Description: Test on the effect on Rhipicephalus sanguineus (thin film in glass container). As to conditions: 96 h, application dose 10 μg/cm^2, protonymphs, 4 days after release, 25° C. On the procedure:
350 μl of the solutions were applied to the bottoms and the side walls of glass containers with an inner wall surface area of 35 cm^2, and acetone was volatilized to prepare thin films of the compounds on the inner walls of the glass containers. Since the inner wall surface area of each glass container was 35 cm^2, the application dose was 10 μg/cm^2.
To each glass container, five protonymphs (male and female) of Rhipiceohalus sanguineus were released, and the containers were covered with lids and placed in an incubator at 25° C. 4 Days after the release of the ticks, dead ticks were counted, and the mortality was calculated by using the same equation as in Test Example 1.

The test system of test [3] is Nilaparvata lugens. The experiment in a line: Insecticidal test on Nilaparvata lugens (rice sheaths soaked). As to conditions: 144 h, 500 ppm solution, 3rd-instar larvae, 6 days after, 25° C.
Test [4] has as its system Plutella xylostella. The experiment in a line: Soil irrigation test on Plutella xylostella. As to conditions: 144 h, 500 ppm solution, 10 ml soil irrigation of cabbage seedlings, leaves picked 5 days after, 3rd-instar larvae, 6 days after. The method, then: The soil around the bases of cabbage seedlings (at the 2.5-leaf stage) planted in plastic cups was irrigated with 10 ml of the solutions. After the irrigation, the cabbage seedlings were placed in a greenhouse. 5 Days after the irrigation, leaves of cabbage were picked and placed in dishes. In each dish, five 3rd-instar larvae of Plutella xylostella were released, and the dishes were covered with lids and placed in an incubator at 25° C. 6 Days after, dead insects in the dishes were counted, and the mortality was calculated by using the same equation as in Test Example 1. The test was carried out in duplicate.

The test system of test [5] is Nilaparvata lugens. The experiment in a line: Systemic insecticidal test on Nilaparvata lugens (rice seedling root dip). To be noted: 20 ppm solution, rice seedling roots dipped 7 days, 3rd-instar larvae, 6 days after release, 25° C. The method, then:
7 Days after, the rice seedlings were picked and put in test tubes, and in each tube, five 3rd-instar larvae of Nilaparvata lugens were released, and the tubes were capped with sponge and placed in an incubator at 25° C. 6 Days after the release of the insects, dead insects were counted, and the mortality (%) (the number of dead insects÷the number of released insects×100) was calculated. The test was carried out in duplicate.

Usually mortality stands for the percentage killed. A higher mortality goes with fewer survivors. Regarding `CCS(=O)(=O)c1c(-c2nc3cc(C(F)(F)F)cnc3n2C)sc2ccc(C(F)(F)F)cc12` [3-1-002a, 2-[3-(ethylsulfonyl)-5-(trifluoromethyl)benzo[b]thiophen-2-yl]-3-methyl-6-(trifluoromethyl)-3H-imidazo[4,5-b]pyridine], the mortality at 10 µg/cm2 with Ctenocephalides felis and in the test on Rhipicephalus sanguineus was at least 50% each time. In addition, the mortality at 500 ppm is at least 90% with Myzus persicae; at least 90% with Spodoptera litura; at least 50% in [1]; at least 90% in the test with Plutella xylostella [2]; at least 90% in the test on Bemisia argentifolii; at least 90% in the test on Nilaparvata lugens [3].
The pest or weed control is the degree to which the test organism was suppressed or injured, in per cent. Lower therefore signals weak suppression. As for `CCS(=O)(=O)c1c(-c2cn3cnc(C(F)(F)F)cc3n2)nc2cc(C(F)(F)F)ccn12` [1-3-001a, 2-[3-(ethylsulfonyl)-7-(trifluoromethyl)imidazo[1,2-a]pyridin-2-yl]-7-(trifluoromethyl)imidazo[1,2-c]pyrimidine], the mortality at 10 µg/cm2 in the test with Ctenocephalides felis is at least 50%. Further, the mortality at 500 ppm in the test with Myzus persicae, with Spodoptera litura, in the test on Plutella xylostella [2], in the test with Bemisia argentifolii and in the test on Nilaparvata lugens [3] was at least 90% throughout. For the same compound, the pest or weed control at 500 ppm in the test with Plutella xylostella [4] was at least 90%. The mortality at 20 ppm with Nilaparvata lugens [5] is at least 90%.
For the compound `CCS(=O)(=O)c1c(-c2nc3cc(C(F)(F)F)c[n+]([O-])c3n2C)nc2cc(C(F)(F)F)ccn12` [1-14-001a, 2-[3-(ethylsulfonyl)-7-(trifluoromethyl)imidazo[1,2-a]pyridin-2-yl]-3-methyl-6-(trifluoromethyl)-3H-imidazo[4,5-b]pyridine 4-oxide], in the test on Ctenocephalides felis, the mortality at 10 µg/cm2 is at least 50%. In addition, the mortality at 500 ppm in the test on Myzus persicae, with Spodoptera litura, in the test on Plutella xylostella [2], with Bemisia argentifolii and in the test on Nilaparvata lugens [3] was at least 90% throughout. In the test with Plutella xylostella [4], this compound gave a pest or weed control at 500 ppm of at least 90%. For the same compound, the mortality at 20 ppm in the test on Nilaparvata lugens [5] was at least 90%.
